Legend:
[1] = system: brains, heart, liver, muscle, and DRG of the NHPs; test: Maturation of TTM-001 and TTM-002 capsids, NGS enrichment in NHP tissues; type: in vivo; settings: relative to AAV9 control
How it was run: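 Variants carry mutations within and flanking the loop IV peptide insert: positions 450–466 were triplet-randomized, while positions 449–466 received low-frequency point mutations. The combined pool went into two NHPs, and each peptide was scored by NGS enrichment ratio against AAV9.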

[2] = system: brain; test: Matured TTM-001 and TTM-002 variants, NGS enrichment in mouse brain; type: in vivo, mice; settings: relative to AAV9 control
[3] = NGS fold-enrichment, DRG of NHPs
[4] = NGS fold-enrichment, RNA, brain of NHPs
[5] = NGS fold-enrichment, heart of NHPs
[6] = NGS fold-enrichment, liver DNA of NHPs
[7] = NGS fold-enrichment, liver RNA of NHPs
[8] = NGS fold-enrichment, muscle of NHPs
[9] = NGS fold-enrichment, brain of mice
[10] = NGS fold-enrichment of matured AAV capsid variants, NHP brain, RNA

| Sequence | Fold Enrichment relative to AAV9, DRG (NHP) [1, 3] | Fold Enrichment relative to AAV9, Brain (NHP) [1, 4] | Fold Enrichment relative to AAV9, Heart (NHP) [1, 5] | Fold Enrichment relative to AAV9, Liver DNA (NHP) [1, 6] | Fold Enrichment relative to AAV9, Liver RNA (NHP) [1, 7] | Fold Enrichment relative to AAV9, Muscle (NHP) [1, 8] | Fold Enrichment relative to AAV9, Brain (Mouse) [2, 9] | Fold Enrichment relative to AAV9, Brain (NHP) [1, 10] | Fold Enrichment relative to AAV9, DRG (NHP) ([1]; NHP DRG) | Fold Enrichment relative to AAV9, Heart (NHP) ([1]; NHP heart) | Fold Enrichment relative to AAV9, Liver DNA (NHP) ([1]; NHP liver, DNA) | Fold Enrichment relative to AAV9, Liver RNA (NHP) ([1]; NHP liver, RNA) | Fold Enrichment relative to AAV9, Muscle (NHP) ([1]; NHP muscle) | Fold Enrichment relative to AAV9, Brain (Mouse) ([2]; mouse brain) | also measured |
| --- | --- | --- | --- | --- | --- | --- | --- | --- | --- | --- | --- | --- | --- | --- | --- |
| KTINGSGSPHSKAQTPPT | 0.010 fold | 64.657 fold | 0.015 fold | 0.207 fold | 0.200 fold | 0.014 fold | 54.179 fold |  |  |  |  |  |  |  |  |
| KTINGSGSPHSKAQVGHT |  |  |  |  |  |  |  | 52.624 fold | 0.000 fold | 0.000 fold | 0.192 fold | 0.535 fold | 0.006 fold | 106.448 fold |  |
| KTINGSGSPHSKAQVPAT |  |  |  |  |  |  |  | 54.475 fold | 0.000 fold | 0.002 fold | 0.223 fold | 0.782 fold | 0.000 fold | 137.743 fold |  |
| KTINGSGSPHSKAQVPPT |  |  |  |  |  |  |  | 57.316 fold | 0.000 fold | 0.012 fold | 0.200 fold | 0.257 fold | 0.000 fold | 90.220 fold |  |
| KTINGSGSPHSKAQVPST |  |  |  |  |  |  |  | 54.366 fold | 0.000 fold | 1.001 fold | 0.139 fold | 0.202 fold | 0.000 fold | 117.223 fold |  |
| KTINGSGSPHSKAQVQQI |  |  |  |  |  |  |  | 57.308 fold | 0.000 fold | 1.113 fold | 0.113 fold | 0.000 fold | 0.000 fold | 61.957 fold |  |
| KTINGSGSPHSKAQVRNT |  |  |  |  |  |  |  | 52.735 fold | 0.000 fold | 0.101 fold | 0.423 fold | 0.230 fold | 0.011 fold | 68.893 fold |  |
| KTINGSGSPHSKAQYIHT | 0.000 fold | 76.170 fold | 0.014 fold | 0.168 fold | 1.523 fold | 0.033 fold | 59.649 fold |  |  |  |  |  |  |  | Fold Enrichment relative to AAV9, Brain (NHP) ([1]; NGS fold-enrichment of RNA, NHP brain): 76.170 fold; Fold Enrichment relative to AAV9, DRG (NHP) ([1]; NGS fold-enrichment, NHP DRG): 0.000 fold; Fold Enrichment relative to AAV9, Heart (NHP) ([1]; NGS fold-enrichment, NHP heart): 0.014 fold; Fold Enrichment relative to AAV9, Liver DNA (NHP) ([1]; NGS fold-enrichment, NHP liver DNA): 0.168 fold; Fold Enrichment relative to AAV9, Liver RNA (NHP) ([1]; NGS fold-enrichment, NHP liver RNA): 1.523 fold; Fold Enrichment relative to AAV9, Muscle (NHP) ([1]; NGS fold-enrichment, NHP muscle): 0.033 fold; Fold Enrichment relative to AAV9, Brain (Mouse) ([2]; NGS fold-enrichment, mouse brain): 59.649 fold |
| KTINGSGSPHSKAQYQHA | 0.000 fold | 64.435 fold | 0.000 fold | 0.097 fold | 0.993 fold | 0.024 fold | 57.278 fold |  |  |  |  |  |  |  |  |
